# Measured values: patent US5053226A, “Monoclonal antibodies binding platinum complexes” (Board of Regents, The University of Texas System, priority 1987, dated 1991)
# Assays:
# [1] = target: monoclonal antibody from hybridoma 1C1 H2 A5; assay: Competitive ELISA of platinum compounds for binding to 1C1 H2 A5 monoclonal antibody; parameters: species or system mouse; settings: for concentration of agent which decreased the antibody binding to 50% of control: MOAB 1C1 H2 A5, immobilized DACH Pt complex in microtiter wells
# Protocol: A DACH Pt complex was immobilized on the surface of microtiter wells.
# A DACH Pt complex was immobilized on the surface of microtiter wells, to which MOAB binding was measured.
# A competitive ELISA assay using monoclonal antibody specific for platinum (II) complex was performed. Monoclonal antibody from hybridoma 1C1 H2 A5 was added to microtiter wells having an immobilized DACH Pt complex. The MOAB was added either with no free platinum complex (control) or with increasing amounts of free MIDP platinum complex. Additionally, three compounds (designated A, B and C), whose identities were best unknown at that time, were added in parallel to the MIDP competition study. As shown in FIG. 10 the competition of compound A was quite similar to that of MIDP. Compound B (FIG. 11) was less similar to MIDP and compound C (FIG. 12) was least like MIDP although still being inhibitory of MOAB binding. The concentration of each agent which decreased the antibody binding to 50% of control was: MIDP=lug; A=2ug; B=4ug and C=200ug.
# [2] = tested on: human breast carcinoma cells (MCF-7); assay: MTT assay; cytotoxicity on MCF-7 breast carcinoma cells; assay type: cell-based; settings: MCF-7, 72 hrs
# Protocol: Eight thousand MCF-7 cells were seeded per well and an MTT dye viability test performed.
# In order to determine whether the MIDP/MOAB complex retained antiproliferative activity against cells in culture, the antibody (2 mg) was incubated with 200 ug of MIDP platinum complex for 24 hrs. The MOAB/MIDP solution was then dialyzed for 4 hrs at 4° C. against phosphate-buffered saline (PBS). The dialysate was then analyzed for total platinum by atomic absorption spectrometry. The monoclonal antibody/MIDP complex was then added to human breast carcinoma cells (MCF-7) in concentrations between 0.01 and 10 ug Pt/ml. As a control on the same plates, MIDP was also added at equal platinum concentrations. At 72 hrs after treatment, the wells were assessed for viable cells by MTT assay.
# **Cell survival was determined using the tetrazolium dyebinding method
# (MTT) which dye reacts only with living cells.
# L1210 leukemia = settings: mice, multi-dose administration; cited from earlier work
# B16 melanoma = settings: mice, multi-dose administration; cited from earlier work
# [3] = tested on: cells resistant to cisplatin; settings: cited from earlier work
# [4] = in vivo; cited from earlier work
Compound,concentration of agent which decreased the antibody binding to 50% of control [1] [µg],binding to the antibody relative to compound C ([1]; relative to compound C),amount needed to compete at a level with MIDP ([1]; relative to MIDP),Percent of Control Cell survival ([2]; MIDP concentration 0.019 ug/ml) [%],Percent of Control Cell survival ([2]; MIDP concentration 0.039 ug/ml) [%],Percent of Control Cell survival ([2]; MIDP concentration 0.078 ug/ml) [%],Percent of Control Cell survival ([2]; MIDP concentration 0.156 ug/ml) [%],Percent of Control Cell survival ([2]; MIDP concentration 0.312 ug/ml) [%],Percent of Control Cell survival ([2]; MIDP concentration 0.625 ug/ml) [%],Percent of Control Cell survival ([2]; MIDP concentration 1.25 ug/ml) [%],Percent of Control Cell survival ([2]; MIDP concentration 2.5 ug/ml) [%],Percent of Control Cell survival ([2]; MIDP concentration 5 ug/ml) [%],Percent of Control Cell survival ([2]; MIDP concentration 10 ug/ml) [%],"concentration required for 50% inhibition of cell growth ([2]; MTT, platinum concentration) [µg/mL]",treatment of L1210 leukemia (L1210 leukemia),treatment of B16 melanoma (B16 melanoma),cross-resistance [3],renal toxicity [4]
"NC1CCCCC1N.O=C([O-])C1(C(=O)[O-])CCC1.[Pt+2] [Compound B, DACH Pt(II) 1,1-dicarboxylatocyclobutane]",4,about 50 fold,,,,,,,,,,,,,,,,
"N.N.O=C([O-])C1(C(=O)[O-])CCC1.[Pt+2] [Compound C, diamine Pt(II) 1,1-dicarboxylatocyclobutane]",200,,100-200 times,,,,,,,,,,,,,,,
"CN(CC(=O)[O-])CC(=O)[O-].NC1CCCCC1N.[Pt+2] [MIDP, methylimino-diacetato-1,2-diaminocyclohexane platinum (II)]",2,,,86.9,84.3,72.4,45.5,32.3,17.0,18.5,15.2,10.8,8.3,0.15,curative,curative,not to display cross-resistance,does not induce renal toxicity
